According to patent US11384062B2 (CombiPhos Catalysts, Inc., priority 2017, dated 2022):

How the values were obtained:
[1] = system: BT-549; conditions: 10 μM single dose; Breast Cancer BT-549
Source text: (§1) The test compounds were screened for anticancer activity at the Development Therapeutic Program (DTP), National Cancer Institute (NCI), USA, against a full NCI 59 cell line panel (six cell lines of leukemia, nine cell lines of lung cancer, seven cell lines of colon cancer, six cell lines of CNS cancer, nine cell lines of melanoma, seven cell lines of ovarian cancer, seven cell lines of renal cancer, two cell lines of prostate cancer, and six cell lines of breast cancer) representing nine human systems in total as leukemia, melanoma, and cancers of the lungs, colon, brain, breast, ovary, kidney, and prostate, according to the applied protocol. A primary in vitro one dose anticancer assay was performed at a single dose (10 μM) against the full NCI 59 cell line panel. The one dose data was reported as a mean graph of the percent growth of treated cells. The number reported for the single dose assay was growth relative to the no drug control and relative to the initial number of cells at time 0. […] A value of −40 means 40% lethality. A value of −100 means all cells are dead.

[2] = system: CCRF-CEM; conditions: 10 μM single dose; Leukemia CCRF-CEM
Source text: as §1

[3] = system: COLO 205; conditions: 10 μM single dose; Colon Cancer COLO 205
Source text: as §1

[4] = system: HCT-116; conditions: 10 μM single dose; Colon Cancer HCT-116
Source text: as §1

[5] = system: HCT-15; conditions: 10 μM single dose; Colon Cancer HCT-15
Source text: as §1

[6] = system: HOP-62; conditions: 10 μM single dose; Non-Small Cell Lung Cancer HOP-62
Source text: as §1

[7] = system: HT29; conditions: 10 μM single dose; Colon Cancer HT29
Source text: as §1

[8] = system: MDA-MB-435; conditions: 10 μM single dose; Melanoma MDA-MB-435
Source text: as §1

[9] = system: NCI-H226; conditions: 10 μM single dose; Non-Small Cell Lung Cancer NCI-H226
Source text: as §1

[10] = system: NCI-H322M; conditions: 10 μM single dose; Non-Small Cell Lung Cancer NCI-H322M
Source text: as §1

[11] = system: NCI-H522; conditions: 10 μM single dose; Non-Small Cell Lung Cancer NCI-H522
Source text: as §1

[12] = system: NCI/ADR-RES; conditions: 10 μM single dose; Ovarian Cancer NCI/ADR-RES
Source text: as §1

[13] = system: OVCAR-4; conditions: 10 μM single dose; Ovarian Cancer OVCAR-4
Source text: as §1

[14] = system: OVCAR-8; conditions: 10 μM single dose; Ovarian Cancer OVCAR-8
Source text: as §1

[15] = system: PC-3; conditions: 10 μM single dose; Prostate Cancer PC-3
Source text: as §1

[16] = system: SK-MEL-2; conditions: 10 μM single dose; Melanoma SK-MEL-2
Source text: as §1

[17] = system: SK-MEL-5; conditions: 10 μM single dose; Melanoma SK-MEL-5
Source text: as §1

[18] = system: SNB-75; conditions: 10 μM single dose; CNS Cancer SNB-75
Source text: as §1

[19] = system: T-47D; conditions: 10 μM single dose; Breast Cancer T-47D
Source text: as §1

[20] = system: TK-10; conditions: 10 μM single dose; Renal Cancer TK-10
Source text: as §1

[21] = system: U251; conditions: 10 μM single dose; CNS Cancer U251
Source text: as §1

[22] = system: UACC-257; conditions: 10 μM single dose; Melanoma UACC-257
Source text: as §1

SMILES	Growth Percentage [1] [%]	Growth Percentage [2] [%]	Growth Percentage [3] [%]	Growth Percentage [4] [%]	Growth Percentage [7] [%]	Growth Percentage [8] [%]	Growth Percentage [9] [%]	Growth Percentage [10] [%]	Growth Percentage [11] [%]	Growth Percentage [12] [%]	Growth Percentage [13] [%]	Growth Percentage [14] [%]	Growth Percentage [15] [%]	Growth Percentage [16] [%]	Growth Percentage [17] [%]	Growth Percentage [18] [%]	Growth Percentage [19] [%]	Growth Percentage [20] [%]	Growth Percentage [21] [%]	Growth Percentage [22] [%]	further results
[2H]C1([2H])NC([2H])([2H])C([2H])(c2ccc(-n3cc4cccc(C(N)=O)c4n3)cc2)C([2H])([2H])C1([2H])[2H] (racemic) [Example 3, 2-(4-(piperidin-3-yl-2,2,3,4,4,5,5,6,6-d9)phenyl)-2H-indazole-7-carboxamide]	113.02	87.92	94.82	83.66	93.28	98.88	93.61	98.96	83.10	97.76	106.31	81.93	80.86	117.90	93.38	76.50	98.94	98.41	85.78	97.56	Growth Percentage [5]: 100.98%; Growth Percentage [6]: 93.86%
[2H]c1c([2H])c(-n2nc3c(C(N)=O)cccc3c2[2H])c([2H])c([2H])c1C1CCCNC1 (racemic) [Example 11, 2-(4-(piperidin-3-yl)phenyl-2,3,5,6-d4)-2H-indazole-3-d-7-carboxamide]	91.44	68.34	79.11	81.62	87.71	91.99	92.42	85.94	89.79	89.85	103.47	84.66	68.67	108.51	91.06	76.35	90.97	102.70	92.89	102.12	Growth Percentage [5]: 85.76%; Growth Percentage [6]: 94.55%
[2H]c1c([2H])c(C2([2H])C([2H])NC([2H])C([2H])C2[2H])c([2H])c([2H])c1-n1cc2cccc(C(N)=O)c2n1 (stereo not shown) [Example 4, 2-(4-(piperidin-3-yl-2,3,4,5,6-d5)phenyl-2,3,5,6-d4)-2H-indazole-7-carboxamide]	99.58	89.50	82.07	77.22	77.66	92.97	91.01	84.01	87.37	84.74	98.64	82.86	85.40	101.94	91.65	70.09	98.04	96.15	83.63	107.99	–
